Laboratory results reported in US20230174584A1, “Antibiotic Compounds” (priority 2019, published 2023).
In brackets after ≈: the same amount, converted by molar mass.

How the values were obtained:
Test in all cases: MIC assay
[1] = test system: E. faecium E7413; type: cell-based, Enterococcus faecium
Experimental: (§1) The antibacterial activity of the compounds was tested against a panel of bacteria, including Gram-positive bacteria (S. aureus ATCC29213, S. aureus USA300, S. aureus LIM-2, NR-45881, S. aureus HIP13419, NR-46413, E. faecium E155, E. faecium E7314, E. faecium E980, E. faecalis E1246, E. faecalis E7406 and S. pneumonia 153). The antibacterial activity of the compounds was further tested against S. aureus NY-155, NR-46236, S. aureus HIP12864, NR-46074, S. aureus 880 (BR-VRSA), NR-49120, E. faecalis E1246, E. faecalis E7604, as well as some Gram-negative bacteria (Escherichia coli and Klebsiella pneumoniae). Minimum inhibitory concentrations (MICs) in μg/mL were performed according to the CLSI guidelines. From glycerol stocks, bacterial strains were cultured on blood agar plates and incubated at 37° C. for 18 h. A single colony was transferred to tryptic soy broth (TSB) with 0.002% polysorbate 80 (p80). For the Enterococcus, VISA and VRSA strains, the cultures were grown at 37° C. until the optical density of the suspension reached a level equivalent to the 0.5 McFarland standard. The bacterial suspensions were diluted in TSB with 0.002% p80 to reach a bacterial cell density of 10^6 CFU/mL. In case of the other (vancomycin-sensitive) S. aureus strains, the direct colony suspension method was used. For these strains, after transfer of the colonies to TSB with 0.002% p80, they were immediately diluted to 10^6 CFU/mL, instead of incubated prior to this dilution. In the case of S. pneumonia, direct colony suspension was used by immediately suspending multiple colonies from fresh blood agar plates in TSB+0.002% p80 to an OD600 of 0.5 and subsequent dilution to 10^6 CFU mL^−1 in TSB+0.002% p80+5% lysed horse blood. Antibiotic dilutions for this strains were also made in TSB+0.002% p80+5% lysed horse blood. Both agar and microplates containing S. pneumonia were incubated at 37° C. with 5% CO2 for 24 h with constant shaking (600 rpm). […] The cultures were grown to exponential phase (OD600=0.5) at 37° C. […] In polypropylene 96-well microtiter plates, test compounds were added in biological triplicates and serial diluted 2-fold by transfer and mixing from one well to the next to achieve a final volume of 50 μL per well. An equal volume of bacterial suspension (10^6 CFU mL^−1) was added to the wells. The plates were sealed with breathable membranes and incubated at 37° C. for 24 h with constant shaking (600 rpm). In polypropylene microtiter plates, 100 μL of the test compounds was added to the first row in biological triplicates, and 50 μL of media was added to the other wells. The compounds were subjected to serial dilution by transfer and mixing of 50 μL from one well to the next. Subsequently, 50 μL of bacterial suspension (10^6 CFU/mL) was added to the wells. The plates were sealed with breathable membranes and incubated at 37° C. for 24 h with constant shaking (600 rpm). Positive growth control consisted of wells with bacterial suspension and without antibiotic. Negative growth control consisted of solely media without bacterial suspension or antibiotic. The MICs were determined from the median of a minimum of triplicates.

[2] = test system: E. faecium EO321; type: cell-based, Enterococcus faecium
Experimental: as §1

[3] = test system: E. faecium E0300; type: cell-based, Enterococcus faecium
Experimental: as §1

[4] = test system: E. faecium E7403; type: cell-based, Enterococcus faecium
Experimental: as §1

[5] = test system: E. faecium E2365; type: cell-based, Enterococcus faecium
Experimental: as §1

[6] = test system: E. faecium E0506; type: cell-based, Enterococcus faecium
Experimental: as §1

[7] = test system: E. faecium E7401; type: cell-based, Enterococcus faecium
Experimental: as §1

[8] = test system: E. faecium E8235; type: cell-based, Enterococcus faecium
Experimental: as §1

[9] = test system: E. faecium E0013; type: cell-based, Enterococcus faecium
Experimental: as §1

[10] = test system: E. faecium E7464; type: cell-based, Enterococcus faecium
Experimental: as §1

[11] = test system: E. faecium E7424; type: cell-based, Enterococcus faecium
Experimental: as §1

[12] = test system: E. faecium E6016; type: cell-based, Enterococcus faecium
Experimental: as §1

[13] = test system: E. faecium E0745; type: cell-based, Enterococcus faecium
Experimental: as §1

[14] = test system: E. faecium E2297; type: cell-based, Enterococcus faecium
Experimental: as §1

[15] = test system: E. faecium E2373; type: cell-based, Enterococcus faecium
Experimental: as §1

[16] = test system: E. faecium E1130; type: cell-based, Enterococcus faecium
Experimental: as §1

[17] = test system: E. faecium E1679; type: cell-based, Enterococcus faecium
Experimental: as §1

[18] = test system: E. faecium E7329; type: cell-based, Enterococcus faecium
Experimental: as §1

[19] = test system: E. faecium E8218; type: cell-based, Enterococcus faecium
Experimental: as §1

[20] = test system: E. faecium E0338; type: cell-based, Enterococcus faecium
[21] = test system: E. faecalis E1246; type: cell-based, Enterococcus faecalis
Experimental: as §1

[22] = E. faecalis E1246 VRE (VanA), Table 7
[23] = E. faecalis E1246 VRE (vanA), Table 9

Compound: CCCCCCN(CCCCCC)C(N)=Nc1ccc(CN[C@@]2(C)C[C@H](O[C@H]3[C@H](Oc4c5cc6cc4Oc4ccc(cc4Cl)[C@@H](O)[C@@H](NC(=O)[C@@H](CC(C)C)NC)C(=O)N[C@@H](CC(N)=O)C(=O)N[C@H]6C(=O)N[C@H]4C(=O)N[C@H](C(=O)N[C@H](C(=O)O)c6cc(O)cc(O)c6-c6cc4ccc6O)[C@H](O)c4ccc(c(Cl)c4)O5)O[C@H](CO)[C@@H](O)[C@@H]3O)O[C@@H](C)[C@H]2O)cc1 [Compound 12]
- MIC ([1]; E. faecium E7413, VanA): 2 µg/mL (≈ 1.13 µM)
- MIC ([2]; E. faecium EO321, VanA): 2 µg/mL (≈ 1.13 µM)
- MIC ([3]; E. faecium E0300, VanA): 1 µg/mL (≈ 0.567 µM)
- MIC ([4]; E. faecium E7403, VanB): ≤0.008 µg/mL
- MIC ([5]; E. faecium E2365, VanB): ≤0.008 µg/mL
- MIC ([6]; E. faecium E0506, VanA): 1 µg/mL (≈ 0.567 µM)
- MIC ([7]; E. faecium E7401, VanB): ≤0.008 µg/mL
- MIC ([8]; E. faecium E8235, VanB): ≤0.008 µg/mL
- MIC ([9]; E. faecium E0013, VanA): 2 µg/mL (≈ 1.13 µM)
- MIC ([10]; E. faecium E7464, VanB): ≤0.008 µg/mL
- MIC ([11]; E. faecium E7424, VanB): ≤0.008 µg/mL
- MIC ([12]; E. faecium E6016, VanA): 0.5 µg/mL (≈ 0.283 µM)
- MIC ([13]; E. faecium E0745, VanA): 0.25 µg/mL (≈ 0.142 µM)
- MIC ([14]; E. faecium E2297, VanA): 1 µg/mL (≈ 0.567 µM)
- MIC ([15]; E. faecium E2373, VanA): 1 µg/mL (≈ 0.567 µM)
- MIC ([16]; E. faecium E1130, VanA): ≤0.008 µg/mL
- MIC ([17]; E. faecium E1679, VanA): 8 µg/mL (≈ 4.53 µM)
- MIC ([18]; E. faecium E7329, VanA): ≤0.008 µg/mL
- MIC ([19]; E. faecium E8218, VanB): ≤0.008 µg/mL
- MIC ([20]; E. faecium E0338, VanA): 2 µg/mL (≈ 1.13 µM)
- MIC [21, 22]: 8 µg/mL (≈ 4.53 µM)
- MIC [21, 23]: 8 µg/mL (≈ 4.53 µM)

Compound: CN[C@H](CC(C)C)C(=O)N[C@H]1C(=O)N[C@@H](CC(N)=O)C(=O)N[C@H]2C(=O)N[C@H]3C(=O)N[C@H](C(=O)N[C@H](C(=O)O)c4cc(O)cc(O)c4-c4cc3ccc4O)[C@H](O)c3ccc(c(Cl)c3)Oc3cc2cc(c3O[C@@H]2O[C@H](CO)[C@@H](O)[C@H](O)[C@H]2O[C@H]2C[C@](C)(N)[C@H](O)[C@H](C)O2)Oc2ccc(cc2Cl)[C@H]1O [Vancomycin, reference compound]
- MIC ([1]; Enterococcus faecium, E7413): > 128 µg/mL
- MIC ([2]; Enterococcus faecium, EO321): > 128 µg/mL
- MIC ([3]; Enterococcus faecium, E0300): > 128 µg/mL
- MIC ([4]; Enterococcus faecium, E7403): 16 µg/mL (≈ 11 µM)
- MIC ([5]; Enterococcus faecium, E2365): 16 µg/mL (≈ 11 µM)
- MIC ([6]; Enterococcus faecium, E0506): > 128 µg/mL
- MIC ([7]; Enterococcus faecium, E7401): 16 µg/mL (≈ 11 µM)
- MIC ([8]; Enterococcus faecium, E8235): 16 µg/mL (≈ 11 µM)
- MIC ([9]; Enterococcus faecium, E0013): > 128 µg/mL
- MIC ([10]; Enterococcus faecium, E7464): 16 µg/mL (≈ 11 µM)
- MIC ([11]; Enterococcus faecium, E7424): 4 µg/mL (≈ 2.76 µM)
- MIC ([12]; Enterococcus faecium, E6016): > 128 µg/mL
- MIC ([13]; Enterococcus faecium, E0745): > 128 µg/mL
- MIC ([14]; Enterococcus faecium, E2297): > 128 µg/mL
- MIC ([15]; Enterococcus faecium, E2373): > 128 µg/mL
- MIC ([16]; Enterococcus faecium, E1130): > 128 µg/mL
- MIC ([17]; Enterococcus faecium, E1679): > 128 µg/mL
- MIC ([18]; Enterococcus faecium, E7329): 1 µg/mL (≈ 0.69 µM)
- MIC ([19]; Enterococcus faecium, E8218): 8 µg/mL (≈ 5.52 µM)
- MIC ([20]; Enterococcus faecium, E0338): > 128 µg/mL
- MIC [21, 23]: >128 µg/mL
- MIC ([21]; Enterococcus faecalis, VRE): > 128 µg/mL

Compound: CCCCCCCCNC(N)=Nc1ccc(CN[C@@]2(C)C[C@H](O[C@H]3[C@H](Oc4c5cc6cc4Oc4ccc(cc4Cl)[C@@H](O)[C@@H](NC(=O)[C@@H](CC(C)C)NC)C(=O)N[C@@H](CC(N)=O)C(=O)N[C@H]6C(=O)N[C@H]4C(=O)N[C@H](C(=O)N[C@H](C(=O)O)c6cc(O)cc(O)c6-c6cc4ccc6O)[C@H](O)c4ccc(c(Cl)c4)O5)O[C@H](CO)[C@@H](O)[C@@H]3O)O[C@@H](C)[C@H]2O)cc1 [Compound 6]
- MIC ([1]; E. faecium E7413, VanA): 4 µg/mL (≈ 2.34 µM)
- MIC ([2]; E. faecium EO321, VanA): 4 µg/mL (≈ 2.34 µM)
- MIC ([3]; E. faecium E0300, VanA): 2 µg/mL (≈ 1.17 µM)
- MIC ([4]; E. faecium E7403, VanB): ≤0.008 µg/mL
- MIC ([5]; E. faecium E2365, VanB): ≤0.008 µg/mL
- MIC ([6]; E. faecium E0506, VanA): 2 µg/mL (≈ 1.17 µM)
- MIC ([7]; E. faecium E7401, VanB): ≤0.008 µg/mL
- MIC ([8]; E. faecium E8235, VanB): ≤0.008 µg/mL
- MIC ([9]; E. faecium E0013, VanA): 1 µg/mL (≈ 0.585 µM)
- MIC ([10]; E. faecium E7464, VanB): ≤0.008 µg/mL
- MIC ([11]; E. faecium E7424, VanB): ≤0.008 µg/mL
- MIC ([12]; E. faecium E6016, VanA): 0.5 µg/mL (≈ 0.293 µM)
- MIC ([13]; E. faecium E0745, VanA): 0.25 µg/mL (≈ 0.146 µM)
- MIC ([14]; E. faecium E2297, VanA): 1 µg/mL (≈ 0.585 µM)
- MIC ([15]; E. faecium E2373, VanA): 2 µg/mL (≈ 1.17 µM)
- MIC ([16]; E. faecium E1130, VanA): ≤0.008 µg/mL
- MIC ([17]; E. faecium E1679, VanA): 8 µg/mL (≈ 4.68 µM)
- MIC ([18]; E. faecium E7329, VanA): ≤0.008 µg/mL
- MIC ([19]; E. faecium E8218, VanB): ≤0.008 µg/mL
- MIC ([20]; E. faecium E0338, VanA): 2 µg/mL (≈ 1.17 µM)
- MIC [21, 22]: 8 µg/mL (≈ 4.68 µM)
- MIC [21, 23]: 8 µg/mL (≈ 4.68 µM)
